Assay results as given in patent US20220125959A1, “PROSTATE-SPECIFIC MEMBRANE ANTIGEN (PSMA) INHIBITORS AS DIAGNOSTIC AND RADIONUCLIDE THERAPEUTIC AGENTS” (FIVE ELEVEN PHARMA INC., priority 2019, published 2022).

Columns and labels:
PSMA = PSMA (Homo sapiens, UniProt Q04609); assay: PSMA competitive binding, PC-3 PIP cells with [125I]MIP-1095; design: expressed in transfected cells; host or cells: PC-3 PIP cells; conditions: n = 3 (a: n = 2); read-out: IC50 *(PC-3 PIP cells and [125I]MIP-1095)
Protocol: In vitro binding assays were carried out to determine the PSMA binding affinity of various compounds. By incubating PSMA positive cells either with: 1). LNCaP with 0.2 nM [^68Ga]PSMA-11 or [^125I]MIP-1095, as the ligand, in the presence of 10 different concentrations of competing ligands; non-specific binding was defined with 20 μM 2-PMPA (2-(phosphonomethyl)pentanedioic acid); or 2). PC-3 PIP cells with [^125I]MIP-1095 (0.18 nM diluted in PBS) in presence of different concentration of test compounds ([…] diluted in PBS containing 0.1% bovine serum albumin). Nonspecific binding (NSB) was defined with 2 μM the known PSMA inhibitor, PSMA-617. After incubation at 37° C. for 1 h, the bound and free fractions were separated by vacuum filtration through GF/B filters using a Brandel M-24R cell harvester. The filters were washed twice with cold Tris-HCl buffer (50 mM, pH=7.4), and the radioactivity on the filters was counted in a gamma counter (Wizard^2, Perkin-Elmer) with 50% efficiency. The nonspecific bound was less than 10% of the total bound. Data were analyzed using GraphPad Prism 6.0 with a nonlinear regression algorithm to obtain the half maximal inhibitory concentration (IC50).
The binding affinities to PSMA of the test compounds were measured by a competitive binding assay using either LNCap or PC-3 PIP cells suspension and the known radiotracers known to have high affinity and specificity to PSMA, [^68Ga]PSMA-11 or [^125I]MIP-1095. The IC50 values of four iodinated compounds, three DOTA, DOTAG and DOTA(GA)2 related compounds and two known PSMA inhibitors are shown in Table 1. Complexes of compound 4 and natural Ga and natural Lu were also tested. […] After labeling with radioisotope they are expected to bind to the tumor tissues over expressing PSMA binding sites.

PIP tumor and PC3 tumor = assay: Biodistribution of 125I labeled compounds 17, 18, 26 and 27 in tumor bearing nude mice; assay type: in vivo; conditions: for Biodistribution: Bladder* / Biodistribution: Stomach* / Biodistribution: large intestine* / Biodistribution: small intestine*: organ with content; for PIP/blood / PIP/muscle: ratio
Protocol: Radioiodination and Purification: 100 μg of either precursor 13, 14, 22 or 23 were dissolved in 100 μL EtOH; 22 μL Na^125I (1033-1118 μCi in 0.1 N NaOH), 100 μL 1N HCl and 100 μL 3% H2O2 were added. After 15 minutes at room temperature, the reaction was stopped by adding 150 μL sat. NaHSO3. The reaction mixture was slowly added to 1.5 mL sat. NaHCO3. Vial was rinsed with 1000 μL EtOH and mixture was diluted further to 10 mL mL water. The active sample was transferred onto an activated C4 mini column. The mixture was pushed through, washed twice with 3 mL water and the product was eluted with 1 mL ACN. Added 100 μL DMSO. The mixture was concentrated to ˜100 μL and purified by HPLC (Agilent Eclipse XCD C18 150×4.6 mm, 5 μm; 4 mL/min, gradient (ACN and water; 0-1 min (20/80), 1-16 min (20/80-100/0), 16-16.5 min (100/0-20/80), 16.5-20 min 20/80) (collected every minute). The sample was blown to dryness under argon, re-dissolved in 500 μL CH2Cl2 and 1 mL TFA was added at room temperature. After 1 hr the solution was blown to dryness and activity taken into 1 mL EtOH (10 μL saturated ascorbic acid/EtOH was added). Isolated activities for [^125I]17, 18, 26, and 27 were 197, 189, 600 and 197 μCi respectively. A representative picture of HPLC profiles (FIG. 3) for radiolabeled protected (intermediate), cold standard and radioactive trace of final compound is shown for [^125I]26.
For iv injection 150 μL of labeled solution was diluted with saline to 3.75 mL. Mice were injected with 2˜3 μCi of [^125I]18, 27, 26, and 18 in 0.15 mL saline. Injected radioactivity was 2 to 3 μCi.
Biodistribution study of [^125I]18, 27, 26, and 18 in tumor bearing nude mice were evaluated for their ability to localization of PSMA positive tumor (Tables 5, 6, 7 and 8). It was observed that [^125I]26 and [^125I] […] These new agents are valuable for radionuclide therapy, when labeled with beta or alpha-emitting isotopes; but these agents will also be useful as diagnostic agents when labeled with gamma-emitting isotopes.

PSMA, sequence (Q04609 whole entry, species assumed): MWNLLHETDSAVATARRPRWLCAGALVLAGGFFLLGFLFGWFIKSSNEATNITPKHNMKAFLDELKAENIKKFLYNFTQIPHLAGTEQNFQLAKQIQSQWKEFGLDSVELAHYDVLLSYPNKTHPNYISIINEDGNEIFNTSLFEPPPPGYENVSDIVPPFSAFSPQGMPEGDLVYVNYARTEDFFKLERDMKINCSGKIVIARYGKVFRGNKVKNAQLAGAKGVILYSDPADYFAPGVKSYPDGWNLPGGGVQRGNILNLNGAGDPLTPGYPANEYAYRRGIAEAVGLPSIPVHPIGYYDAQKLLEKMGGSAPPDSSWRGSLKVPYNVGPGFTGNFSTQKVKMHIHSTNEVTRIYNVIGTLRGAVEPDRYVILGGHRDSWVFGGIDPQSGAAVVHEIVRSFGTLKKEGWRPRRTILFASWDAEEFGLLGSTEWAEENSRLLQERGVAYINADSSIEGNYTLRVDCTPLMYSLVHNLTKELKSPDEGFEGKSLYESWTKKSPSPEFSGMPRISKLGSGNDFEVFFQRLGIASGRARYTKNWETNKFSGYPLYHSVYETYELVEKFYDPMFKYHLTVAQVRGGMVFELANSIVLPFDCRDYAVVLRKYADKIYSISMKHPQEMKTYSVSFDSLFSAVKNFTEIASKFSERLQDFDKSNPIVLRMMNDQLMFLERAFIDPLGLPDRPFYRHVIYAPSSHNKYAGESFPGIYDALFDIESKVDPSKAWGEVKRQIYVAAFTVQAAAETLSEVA

## O=C(O)CC[C@H](NC(=O)N[C@@H](CCCCNC(=O)[C@H](Cc1ccccc1)NC(=O)COc1ccc(C[C@H](NC(=O)[C@H](CCC(=O)O)NC(=O)c2ccc(I)cc2)C(=O)O)cc1)C(=O)O)C(=O)O [Compound 26, (((S)-1-Carboxy-5-((S)-2-(2-(4-((S)-2-carboxy-2-((S)-4-carboxy-2-(4-iodobenzamido)butanamido)ethyl)phenoxy)acetamido)-3-phenylpropanamido)pentyl)carbamoyl)-L-glutamic acid]
PSMA
  IC50: 4.74 ± 0.37 nM

## O=C(O)CC[C@H](NC(=O)N[C@@H](CCCCNC(=O)[C@H](Cc1ccccc1)NC(=O)[C@H](CCC(=O)O)NC(=O)c1ccc([125I])cc1)C(=O)O)C(=O)O [[^125I]17]
PIP tumor and PC3 tumor; 1 h
  Biodistribution: Blood: 0.45 ± 0.11 % ID/g
  Biodistribution: Bone: 0.16 ± 0.02 % ID/g
  Biodistribution: Heart: 0.29 ± 0.04 % ID/g
  Biodistribution: Kidney: 41.44 ± 5.10 % ID/g
  Biodistribution: Liver: 2.94 ± 2.12 % ID/g
  Biodistribution: Lung: 1.15 ± 1.27 % ID/g
  Biodistribution: Muscle: 0.43 ± 0.24 % ID/g
  Biodistribution: PC3 tumor: 1.70 ± 1.33 % ID/g
  Biodistribution: PIP tumor: 10.72 ± 2.98 % ID/g
  Biodistribution: Pancreas: 0.55 ± 0.64 % ID/g
  Biodistribution: Skin: 0.57 ± 0.24 % ID/g
  Biodistribution: Spleen: 3.25 ± 1.52 % ID/g
  Biodistribution: gland: 0.81 ± 0.18 % ID/g
  Biodistribution: thyroid: 3.57 ± 0.75 % ID/g
  Biodistribution: Bladder*: 204.72 ± 108.11 % ID/g
  Biodistribution: Stomach*: 0.18 ± 0.05 % ID/g
  Biodistribution: large intestine*: 2.10 ± 1.64 % ID/g
  Biodistribution: small intestine*: 3.22 ± 1.64 % ID/g
  PIP/blood: 23.69 ± 2.07
  PIP/muscle: 27.52 ± 7.80
PIP tumor and PC3 tumor; 4 h
  Biodistribution: Blood: 0.09 ± 0.03 % ID/g
  Biodistribution: Bone: 0.03 ± 0.02 % ID/g
  Biodistribution: Heart: 0.11 ± 0.07 % ID/g
  Biodistribution: Kidney: 25.41 ± 7.57 % ID/g
  Biodistribution: Liver: 0.48 ± 0.53 % ID/g
  Biodistribution: Lung: 0.19 ± 0.13 % ID/g
  Biodistribution: Muscle: 0.25 ± 0.44 % ID/g
  Biodistribution: PC3 tumor: 0.28 ± 0.10 % ID/g
  Biodistribution: PIP tumor: 5.17 ± 2.02 % ID/g
  Biodistribution: Pancreas: 0.22 ± 0.25 % ID/g
  Biodistribution: Skin: 0.11 ± 0.04 % ID/g
  Biodistribution: Spleen: 0.46 ± 0.27 % ID/g
  Biodistribution: gland: 0.19 ± 0.05 % ID/g
  Biodistribution: thyroid: 7.16 ± 1.91 % ID/g
  Biodistribution: Bladder*: 68.75 ± 30.09 % ID/g
  Biodistribution: Stomach*: 0.11 ± 0.10 % ID/g
  Biodistribution: large intestine*: 0.86 ± 0.22 % ID/g
  Biodistribution: small intestine*: 0.23 ± 0.16 % ID/g
  PIP/blood: 62.95 ± 31.81
  PIP/muscle: 200.29 ± 221.74
PIP tumor and PC3 tumor; mouse, in vivo
  Washout in PIP tumors, kidneys and spleen compared to [125I]18 and [125I]27: significantly faster washout

## O=C(O)CC[C@H](NC(=O)N[C@@H](CCCCNC(=O)[C@H](Cc1ccccc1)NC(=O)[C@H](CCC(=O)O)NC(=O)[C@H](CCC(=O)O)NC(=O)c1ccc([125I])cc1)C(=O)O)C(=O)O [[^125I]18]
PIP tumor and PC3 tumor; 1 h
  Biodistribution: Blood: 0.71 ± 0.31 % ID/g
  Biodistribution: Bone: 0.89 ± 0.08 % ID/g
  Biodistribution: Heart: 3.06 ± 0.48 % ID/g
  Biodistribution: Kidney: 96.21 ± 21.68 % ID/g
  Biodistribution: Liver: 3.57 ± 0.32 % ID/g
  Biodistribution: Lung: 3.16 ± 0.55 % ID/g
  Biodistribution: Muscle: 0.95 ± 0.27 % ID/g
  Biodistribution: PC3 tumor: 2.22 ± 0.58 % ID/g
  Biodistribution: PIP tumor: 13.29 ± 3.46 % ID/g
  Biodistribution: Pancreas: 1.66 ± 0.93 % ID/g
  Biodistribution: Skin: 1.48 ± 0.44 % ID/g
  Biodistribution: Spleen: 6.83 ± 0.46 % ID/g
  Biodistribution: gland: 4.03 ± 0.46 % ID/g
  Biodistribution: thyroid: 15.99 ± 1.88 % ID/g
  Biodistribution: Bladder*: 97.62 ± 20.87 % ID/g
  Biodistribution: Stomach*: 0.46 ± 0.29 % ID/g
  Biodistribution: large intestine*: 1.12 ± 0.65 % ID/g
  Biodistribution: small intestine*: 1.98 ± 0.27 % ID/g
  PIP/blood: 21.30 ± 8.28
  PIP/muscle: 16.14 ± 10.36
PIP tumor and PC3 tumor; 4 h
  Biodistribution: Blood: 0.33 ± 0.17 % ID/g
  Biodistribution: Bone: 0.45 ± 0.23 % ID/g
  Biodistribution: Heart: 1.60 ± 0.46 % ID/g
  Biodistribution: Kidney: 69.39 ± 24.24 % ID/g
  Biodistribution: Liver: 2.62 ± 1.62 % ID/g
  Biodistribution: Lung: 1.50 ± 0.65 % ID/g
  Biodistribution: Muscle: 0.69 ± 0.27 % ID/g
  Biodistribution: PC3 tumor: 1.20 ± 0.52 % ID/g
  Biodistribution: PIP tumor: 15.27 ± 5.40 % ID/g
  Biodistribution: Pancreas: 0.89 ± 0.13 % ID/g
  Biodistribution: Skin: 0.81 ± 0.37 % ID/g
  Biodistribution: Spleen: 4.37 ± 1.70 % ID/g
  Biodistribution: gland: 2.25 ± 0.80 % ID/g
  Biodistribution: thyroid: 26.99 ± 18.70 % ID/g
  Biodistribution: Bladder*: 123.13 ± 40.10 % ID/g
  Biodistribution: Stomach*: 0.72 ± 0.76 % ID/g
  Biodistribution: large intestine*: 0.74 ± 0.25 % ID/g
  Biodistribution: small intestine*: 1.11 ± 0.82 % ID/g
  PIP/blood: 50.29 ± 15.07
  PIP/muscle: 25.78 ± 14.13
PIP tumor and PC3 tumor; mouse, in vivo
  Liver uptakes: low

## O=C(O)CC[C@H](NC(=O)N[C@@H](CCCCNC(=O)[C@H](Cc1ccccc1)NC(=O)COc1ccc(C[C@H](NC(=O)[C@H](CCC(=O)O)NC(=O)c2ccc([125I])cc2)C(=O)O)cc1)C(=O)O)C(=O)O [[^125I]26]
PIP tumor and PC3 tumor; 1 h
  Biodistribution: Blood: 0.46 ± 0.22 % ID/g
  Biodistribution: Bone: 0.48 ± 0.11 % ID/g
  Biodistribution: Heart: 0.73 ± 0.20 % ID/g
  Biodistribution: Kidney: 174.61 ± 30.65 % ID/g
  Biodistribution: Liver: 4.61 ± 1.72 % ID/g
  Biodistribution: Lung: 3.08 ± 0.87 % ID/g
  Biodistribution: Muscle: 1.72 ± 0.54 % ID/g
  Biodistribution: PC3 tumor: 2.39 ± 1.42 % ID/g
  Biodistribution: PIP tumor: 26.19 ± 3.46 % ID/g
  Biodistribution: Pancreas: 0.98 ± 0.42 % ID/g
  Biodistribution: Skin: 2.33 ± 0.61 % ID/g
  Biodistribution: Spleen: 21.66 ± 2.63 % ID/g
  Biodistribution: gland: 6.97 ± 1.06 % ID/g
  Biodistribution: thyroid: 13.21 ± 8.48 % ID/g
  Biodistribution: Bladder*: 14.69 ± 3.80 % ID/g
  Biodistribution: Stomach*: 0.35 ± 0.11 % ID/g
  Biodistribution: large intestine*: 1.24 ± 0.79 % ID/g
  Biodistribution: small intestine*: 1.08 ± 0.63 % ID/g
  PIP/blood: 66.04 ± 29.31
  PIP/muscle: 16.02 ± 3.85
PIP tumor and PC3 tumor; 4 h
  Biodistribution: Blood: 0.21 ± 0.21 % ID/g
  Biodistribution: Bone: 0.25 ± 0.06 % ID/g
  Biodistribution: Heart: 0.38 ± 0.23 % ID/g
  Biodistribution: Kidney: 114.69 ± 32.67 % ID/g
  Biodistribution: Liver: 4.90 ± 1.80 % ID/g
  Biodistribution: Lung: 2.08 ± 0.67 % ID/g
  Biodistribution: Muscle: 0.30 ± 0.19 % ID/g
  Biodistribution: PC3 tumor: 1.37 ± 0.45 % ID/g
  Biodistribution: PIP tumor: 14.32 ± 3.87 % ID/g
  Biodistribution: Pancreas: 0.52 ± 0.26 % ID/g
  Biodistribution: Skin: 1.67 ± 1.30 % ID/g
  Biodistribution: Spleen: 15.37 ± 3.26 % ID/g
  Biodistribution: gland: 2.03 ± 1.29 % ID/g
  Biodistribution: thyroid: 28.57 ± 10.04 % ID/g
  Biodistribution: Bladder*: 15.11 ± 4.09 % ID/g
  Biodistribution: Stomach*: 0.49 ± 0.27 % ID/g
  Biodistribution: large intestine*: 1.35 ± 0.47 % ID/g
  Biodistribution: small intestine*: 0.30 ± 0.11 % ID/g
  PIP/blood: 104.80 ± 62.05
  PIP/muscle: 60.91 ± 38.35
PIP tumor and PC3 tumor; mouse, in vivo
  Liver uptakes: low
  Uptakes in PIP tumors, kidneys and spleen compared to [125I]17 and [125I]18: higher uptakes
  Washout in PIP tumors, kidneys and spleen compared to [125I]18 and [125I]27: significantly faster washout
